From patent US20130310625A1, “VELIPARIB IN COMBINATION WITH WHOLE BRAIN RADIATION THERAPY FOR THE TREATMENT OF BRAIN METASTASES” (AbbVie Inc., priority 2012, published 2013)
“Also recorded” adds a separate entry of the source. One block for each compound: values may come before it.

Assays:
brain metastases = conditions: radio-sensitizer added to WBRT, randomized controlled studies; cited from earlier work
[1] = Phase 1 pharmacokinetics of veliparib administered concurrently with WBRT in patients with brain metastases; assay type: in vivo, human
Description: (§1) This example is a Phase 1, multicenter, dose-escalation study evaluating the safety, tolerability and pharmacokinetics of veliparib administered concurrently with conventional WBRT in subjects with solid primary tumors metastatic to the brain.
(§2) Patients received WBRT delivered in 2.5 Gy fractions once a day (QD) for a total of 15 fractions or WBRT delivered at 3.0 Gy fractions QD for a total of 10 fractions.
(§3) Veliparib dose-escalation began at 10 mg and increased to 20, 30, 50, 80, 100, 150, 200, and 300 mg twice a day (BID) through out the entire course of WBRT (Table 2); the final WBRT fraction was followed by 1 extra day of veliparib.
To determine PK of veliparib, intensive PK sampling was performed on Day 1 of the WBRT schedules (15 and 10 day) at the following time points: 0, 30, 1, 2, 6 and 24 hours. PK as was also performed on Day 6 for both WBRT schedules at the following time points: 0, 30 min, 1, 2, and 6 For the 15 Day schedule sampling was performed on Day 15 at 0, 30 min, 1, 2 and 6 hours. For the 10 day schedule only a 0 hour sample was collected. Post treatment samples were collected 24-72 hours after the last dose of veliparib for both WBRT schedules.

[2] = Phase 1 safety and tolerability of veliparib with WBRT (AEs by NCI CTCAE v3.0, DLTs); assay type: in vivo, human
Description: as §1, §2, §3
AEs were assessed by NCI CTCAE v3.0.

[3] = preclinical study; cited from earlier work
[4] = nonhuman primate model (Muscal et al. 2010); cited from earlier work
[5] = N = 66, possibly or probably related to veliparib

SMILES: Cc1ncc([N+](=O)[O-])n1CCO [metronidazole]
benefit in local brain tumor control or overall survival (brain metastases): failing to benefit

SMILES: COCC(O)Cn1ccnc1[N+](=O)[O-] (stereo not shown) [misonidazole]
benefit in local brain tumor control or overall survival (brain metastases): failing to benefit

SMILES: Cc1cc(C)cc(NC(=O)Cc2ccc(OC(C)(C)C(=O)O)cc2)c1 [efaproxiral]
benefit in local brain tumor control or overall survival (brain metastases): failing to benefit

SMILES: O=c1[nH]c(=O)n([C@H]2C[C@H](O)[C@@H](CO)O2)cc1Br [bromodeoxyuridine]
benefit in local brain tumor control or overall survival (brain metastases): failing to benefit

SMILES: O=C(O)c1nn(Cc2ccc(Cl)cc2Cl)c2ccccc12 [lonidamine]
benefit in local brain tumor control or overall survival (brain metastases): failing to benefit

SMILES: CC(=O)[O-].CC(=O)[O-].CCc1c(CC)c2cc3nc(cnc4cc(OCCOCCOCCOC)c(OCCOCCOCCOC)cc4ncc4nc(cc1[n-]2)C(CCCO)=C4C)C(C)=C3CCCO.O.[Gd+3] [motexafin gadolinium]
benefit in local brain tumor control or overall survival (brain metastases): failing to benefit

Increase in veliparib exposure (Cmax and AUC) with increase in veliparib dose ([1]; 10 to 150 mg BID dose range): approximately dose-proportional
veliparib accumulation following BID dosing ([1]; Cmax and AUC on Day 1, Day 6 and Day 15): minimal
effect of food on veliparib oral bioavailability ([1]; exposure Day 6 (fasting) vs Day 15 (non-fasting)): no significant effect of food
Tmax ([1]; human, plasma, oral veliparib BID with WBRT, patients): 1 to 2 h
oral clearance ([1]; mean±SD, n=45, 10 to 150 mg BID dose range): 21.6 ± 14.2 L/h
SMILES: C[C@]1(c2nc3c(C(N)=O)cccc3[nH]2)CCCN1 [Veliparib, 2-[(2R)-2-methylpyrrolidin-2-yl]-1H-benzimidazole-4-carboxamide]
DLT ([2]; 150 mg veliparib BID, one patient each): grade 3 hypokalemia; also recorded: grade 3 hyponatraemia
dose limiting toxicities (DLTs) ([2]; 10, 20, 30, 50, 80, 100, 200 and 300 mg dose levels): No dose limiting toxicities (DLTs) were observed
Any Event, Any Grade, treatment-emergent AEs possibly or probably related to veliparib ([2]; N = 66): 37 (56) n (%)
Any Event, Grade 3/4 AEs possibly or probably related to veliparib ([2]; N = 66): 10 (15) n (%)
Decreased Appetite, Any Grade [2, 5]: 8 (12) n (%)
Fatigue, Any Grade [2, 5]: 22 (33.3) n (%)
Fatigue, Grade 3/4 [2, 5]: 3 (5) n (%)
Nausea, Any Grade [2, 5]: 13 (19.7) n (%)
Nausea, Grade 3/4 [2, 5]: 1 (2) n (%)
Vomiting, Any Grade [2, 5]: 8 (12) n (%)
patients with AEs leading to study drug discontinuation ([2]; all causes): 8 (12%) patients
patients with AEs leading to study drug discontinuation possibly or probably related to veliparib ([2]; in vivo): 2 (3%) patients
blood-brain barrier crossing and accumulation in brain tumor tissue [3]: shown to cross the blood-brain barrier and accumulate in brain tumor tissue
level in CSF [4]: measured in CSF in a range that has been shown to inhibitor PARP activity in vivo in humans
